“And” between values parts separate entries of the source, which are not always exact repeats. Equal values may be shown once. Read-outs that look alike come from different tables or passages of the source.
Tests used:
[1] = system: IL-4 production by OvA-stimulated splenocytes; test: OvA-stimulated production of IL-4 by splenocytes of OvA-immunized mice
Method: The OvA was administered subcutaneously to the crest in a volume of 200 μl. Mice were immunized on day 1 with OvA in complete Freund's adjuvant (CFA; Sigma) and on day 15 with the antigen in incomplete Freund's adjuvant (IFA; Sigma). The immune response was analyzed on day 29. Mice were also immunized with 10 μg/mouse of OvA using Alum as an adjuvant.
Thymuses and spleens from mice of each treatment group were pooled, and then minced with scissors. The minced tissues were suspended in sterile PBS to form cell suspensions, filtered through a double gauze layer and centrifuged. Cells were washed twice with PBS, re-suspended in RPMI-1640 (Sigma) with 2.0 mM of L-glutamine, 50 μM of mercaptoethanol, and 10 μg/ml of gentamycin (complete medium); and cell counts were made. (The splenocyte suspension was washed with a 0.86% solution of NH4Cl to pre-lyse erthrocytes.)
Assessment of Mitogen- and Antigen-Induced Production of Cytokines: Thymic cells (1×10^6/well) in complete medium with 2% FCS were stimulated with ConA (0, 1, and 2 μg/ml). […] Concentrations of IL-2, IL-4, IL-10, IL-12R40 and IFNγ in the supernatants were determined by solid-phase EIA with EIA Expansion Kits, available from BD Biosciences (formerly Pharmingen), in accordance with the manufacturer's instructions.

[2] = system: M. tuberculosis strain H37Rv; type: in vivo, mice; conditions: for CFUs of BCG per ml of Lung Homogenate, MEAN / CFUs of BCG per ml of Lung Homogenate, MEDIAN / CFUs of BCG per ml of Lung Homogenate, individual mice M1-M5: day 61
[3] = Clinical manifestations of infectious syndrome (ARVI, ENT diseases, herpes, gastrointestinal, urogenital) after vaccination with SCV-07; type: in vivo, human
Source text: The protocol of the placebo-controlled, randomized study of the efficacy of vaccination against viral hepatitis B was approved by the committee of ethics of the Chelyabinsk State Medical Academy. […] Diagnosis of the infectious syndrome was made in accordance with the standards of diagnostics and treatment of secondary immunodeficiencies recommended by the institute of Immunology of the Ministry of Public Health of the RF, Moscow. (R. M. Kahaitov, N. I. Iljina, L. V. and Luss et al., 2002) All subjects gave their personal consent to participate in the study and submitted a signed informed consent form.
Data on the incidence of episodes and relapses of chronic diseases for each immunocompromised subject were recorded during pre- and post vaccination periods and used to compare the immunological clinical parameters of each subject in the pre- and post vaccination periods. Chronic diseases that were tracked included diseases of the ears, nose and throat, urinary systems, genital systems and gastrointestinal tract, and diseases of the skin, hair and nails (the integumentary tissues).
Participants in the study had the following clinical manifestations of infectious syndrome: sixty-seven percent (67%) had acute respiratory viral infections (ARVI) more than four times a year; forty-nine percent (49%) had chronic inflammatory diseases of the ears, nose and throat; forty-five percent (45%) suffered from recurrent herpes viral infections; thirty percent (30%) had chronic inflammatory diseases of the gastrointestinal tract; thirty-three (33%) had recurrent infections of the skin and subcutaneous adipose cellular tissues. Study participants with the spontaneous form of secondary immunodeficiency typically had more than one chronic inflammatory disease. Seventy-one percent (71%) of the subjects with infectious syndrome had three or more different clinical manifestations of a chronic inflammatory disease. Subjects with a single clinical manifestation made up only three percent (3%) of Groups I and II.

[4] = system: IL-2 production by ConA-stimulated splenocytes; test: IL-2 production by ConA-stimulated splenocytes; type: in vivo, mice; conditions: ConA 1 μg/ml, 0.01 μg/kg per os
[5] = group 3: BCG + 0.01 μg SCV-07 D1-D5
[6] = group 4: BCG + 0.01 μg SCV-07 D1-D30
[7] = group 5: BCG + 0.01 μg SCV-07 D1-5, D7, 11, 14, 18, 21, 25, 28
[8] = group 6: BCG + 0.01 μg SCV-07 D6-D30
[9] = group 7: BCG + 0.20 μg SCV-07 D1-D5
[10] = group 8: BCG + 0.20 μg SCV-07 D1-D30
[11] = group 9: BCG + 0.20 μg SCV-07 D1-5, D7, 11, 14, 18, 21, 25, 28
[12] = group 10: BCG + 0.20 μg SCV-07 D6-D30
[13] = group 11: BCG + 2.0 μg SCV-07 D1-D5
[14] = group 12: BCG + 2.0 μg SCV-07 D1-D30
[15] = group 13: BCG + 2.0 μg SCV-07 D1-5, D7, 11, 14, 18, 21, 25, 28
[16] = group 14: BCG + 2.0 μg SCV-07 D6-D30

Compound: N[C@H](CCC(=O)N[C@@H](Cc1c[nH]c2ccccc12)C(=O)O)C(=O)O [SCV-07, γ-D-glutamyl-L-tryptophan]
- levels of IL-4 production in supernatants of OvA-stimulated splenocytes ([1]; OvA/Alum, all animal groups): below the sensitivity of the test system
- levels of IL-4 in supernatants of OvA-stimulated splenocytes ([1]; OvA/FA, all animals, below the sensitivity of the test-system): < 6 pg/mL
- dose with optimal enhancing effect of SCV-07 for vaccination with BCG ([2]; about 8-10 μg/kg): 0.20 µg
- CFUs of BCG per ml of Lung Homogenate, MEAN [2, 5]: 5.0 log10 CFU per milliliter
- CFUs of BCG per ml of Lung Homogenate, MEDIAN [2, 5]: 4.9 log10 CFU per milliliter
- CFUs of BCG per ml of Lung Homogenate, individual mice M1-M5 [2, 5]: 4.8 log10 CFU per milliliter (2×) and 5.3 log10 CFU per milliliter (2×) and 4.9 log10 CFU per milliliter
- CFUs of BCG per ml of Lung Homogenate, MEAN [2, 6]: 4.8 log10 CFU per milliliter
- CFUs of BCG per ml of Lung Homogenate, MEDIAN [2, 6]: 4.9 log10 CFU per milliliter
- CFUs of BCG per ml of Lung Homogenate, individual mice M1-M5 [2, 6]: 5.1 log10 CFU per milliliter and 4.8 log10 CFU per milliliter and 5.0 log10 CFU per milliliter and 4.3 log10 CFU per milliliter
- CFUs of BCG per ml of Lung Homogenate, MEAN [2, 7]: 4.9 log10 CFU per milliliter
- CFUs of BCG per ml of Lung Homogenate, MEDIAN [2, 7]: 5.0 log10 CFU per milliliter
- CFUs of BCG per ml of Lung Homogenate, individual mice M1-M5 [2, 7]: 5.1 log10 CFU per milliliter (2×) and 5.0 log10 CFU per milliliter and 4.6 log10 CFU per milliliter and 4.8 log10 CFU per milliliter
- CFUs of BCG per ml of Lung Homogenate, MEAN [2, 8]: 5.5 log10 CFU per milliliter
- CFUs of BCG per ml of Lung Homogenate, MEDIAN [2, 8]: 5.5 log10 CFU per milliliter
- CFUs of BCG per ml of Lung Homogenate, individual mice M1-M5 [2, 8]: 5.4 log10 CFU per milliliter and 5.5 log10 CFU per milliliter (2×) and 5.7 log10 CFU per milliliter
- CFUs of BCG per ml of Lung Homogenate, MEAN [2, 9]: 4.9 log10 CFU per milliliter
- CFUs of BCG per ml of Lung Homogenate, MEDIAN [2, 9]: 5.0 log10 CFU per milliliter
- CFUs of BCG per ml of Lung Homogenate, individual mice M1-M5 [2, 9]: 4.8 log10 CFU per milliliter (2×) and 5.0 log10 CFU per milliliter (2×) and 5.1 log10 CFU per milliliter
- CFUs of BCG per ml of Lung Homogenate, MEAN [2, 10]: 4.6 log10 CFU per milliliter
- CFUs of BCG per ml of Lung Homogenate, MEDIAN [2, 10]: 4.6 log10 CFU per milliliter
- CFUs of BCG per ml of Lung Homogenate, individual mice M1-M5 [2, 10]: 4.5 log10 CFU per milliliter and 4.7 log10 CFU per milliliter (2×) and 4.6 log10 CFU per milliliter
- CFUs of BCG per ml of Lung Homogenate, MEAN [2, 11]: 4.8 log10 CFU per milliliter
- CFUs of BCG per ml of Lung Homogenate, MEDIAN [2, 11]: 4.8 log10 CFU per milliliter
- CFUs of BCG per ml of Lung Homogenate, individual mice M1-M5 [2, 11]: 4.6 log10 CFU per milliliter and 4.4 log10 CFU per milliliter and 4.9 log10 CFU per milliliter and 5.1 log10 CFU per milliliter and 4.8 log10 CFU per milliliter
- CFUs of BCG per ml of Lung Homogenate, MEAN [2, 12]: 5.3 log10 CFU per milliliter
- CFUs of BCG per ml of Lung Homogenate, MEDIAN [2, 12]: 5.3 log10 CFU per milliliter
- CFUs of BCG per ml of Lung Homogenate, individual mice M1-M5 [2, 12]: 5.4 log10 CFU per milliliter and 5.2 log10 CFU per milliliter
- CFUs of BCG per ml of Lung Homogenate, MEAN [2, 13]: 5.0 log10 CFU per milliliter
- CFUs of BCG per ml of Lung Homogenate, MEDIAN [2, 13]: 5.1 log10 CFU per milliliter
- CFUs of BCG per ml of Lung Homogenate, individual mice M1-M5 [2, 13]: 5.1 log10 CFU per milliliter (3×) and 4.8 log10 CFU per milliliter (2×)
- CFUs of BCG per ml of Lung Homogenate, MEAN [2, 14]: 5.0 log10 CFU per milliliter
- CFUs of BCG per ml of Lung Homogenate, MEDIAN [2, 14]: 5.1 log10 CFU per milliliter
- CFUs of BCG per ml of Lung Homogenate, individual mice M1-M5 [2, 14]: 5.1 log10 CFU per milliliter and 4.8 log10 CFU per milliliter and 5.3 log10 CFU per milliliter (2×) and 4.6 log10 CFU per milliliter
- CFUs of BCG per ml of Lung Homogenate, MEAN [2, 15]: 4.9 log10 CFU per milliliter
- CFUs of BCG per ml of Lung Homogenate, MEDIAN [2, 15]: 4.8 log10 CFU per milliliter
- CFUs of BCG per ml of Lung Homogenate, individual mice M1-M5 [2, 15]: 4.8 log10 CFU per milliliter (2×) and 4.7 log10 CFU per milliliter and 5.1 log10 CFU per milliliter and 5.3 log10 CFU per milliliter
- CFUs of BCG per ml of Lung Homogenate, MEAN [2, 16]: 5.4 log10 CFU per milliliter
- CFUs of BCG per ml of Lung Homogenate, MEDIAN [2, 16]: 5.4 log10 CFU per milliliter
- CFUs of BCG per ml of Lung Homogenate, individual mice M1-M5 [2, 16]: 5.3 log10 CFU per milliliter (2×) and 5.4 log10 CFU per milliliter and 5.5 log10 CFU per milliliter
- participants reporting herpes outbreaks one to two times during a year ([3]; after vaccination and SCV-07 (13% before)): 53%
- participants with herpes infections five times a year or more ([3]; after vaccination and SCV-07 administration (40% before)): no participants
- incidence of ARVI ([3]; subjects who previously reported ARVI between 5 and 9 times a year, vaccine + SCV-07): sharply reduced
- participants without episodes or outbreaks of herpes ([3]; vaccinated and received SCV-07): Thirty-four
- subjects with aggravated chronic ENT diseases three to four times a year who had no aggravated incidents during the first year after vaccination ([3]; vaccinated participants that received SCV-07): 35%
- frequency of chronic diseases of the gastrointestinal tract and the urogenital system ([3]; vaccinated participants with infectious syndrome that received SCV-07): did not change
- IL-2 production (U/ml), M ± SD [4]: 10.4 ± 1.1 U/ml

— patent US20090074815A1, “Immunomodulator Compounds as Vaccine Enhancers” (SCICLONE PHARMACEUTICALS, INC., priority 2005, published 2009)
